Test results from patent US9440982B2 (Eolas Therapeutics, Inc., priority 2012, dated 2016).
Read-outs that look alike come from different tables or passages of the source.

Target: T1, OX1 (Homo sapiens, UniProt O43613)
T1 construct: expressed in transfected cells; host or cells: CHO (CHO-OX1, kept under selection antibiotic)
T1 sequence (O43613 1-425): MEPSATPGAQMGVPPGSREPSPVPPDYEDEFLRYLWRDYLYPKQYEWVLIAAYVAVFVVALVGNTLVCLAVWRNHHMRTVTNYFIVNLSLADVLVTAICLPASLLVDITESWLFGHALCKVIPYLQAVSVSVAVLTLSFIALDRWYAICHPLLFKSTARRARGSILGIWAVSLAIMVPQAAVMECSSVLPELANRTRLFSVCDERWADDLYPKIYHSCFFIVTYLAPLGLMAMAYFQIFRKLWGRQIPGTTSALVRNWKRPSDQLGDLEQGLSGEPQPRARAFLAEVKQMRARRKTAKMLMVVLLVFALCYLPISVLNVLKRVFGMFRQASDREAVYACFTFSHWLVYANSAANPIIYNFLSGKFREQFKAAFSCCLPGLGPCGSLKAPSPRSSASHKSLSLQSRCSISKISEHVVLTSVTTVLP
Test: Orexin receptor cell-based functional assay, [Ca2+]i by FLIPR, CHO-OX1 cells
Conditions: CHO-OX1 cells, EC90 of OXA
Method in brief: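 CHO cells expressing human OX1 or OX2 loaded with calcium dye plus 2.5 mM probenecid at 37° C (calcium4, 30 min, or calcium6, 2 h), then exposed to compounds (0.1 nM-10 μM) for 30 min. Intracellular Ca2+ measured on FLIPR; antagonist format.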

[1] = [Ca2+]i by FLIPR, antagonist dose-range 0.1 nM-10 μM, read-out: OX1
[2] = Table 2, read-out: IC50 Bioactivity OX1

SMILES | IC50 [1] | IC50 [2]
Cc1ccc(-c2ccnc(C)c2)c(C(=O)N2CCC[C@@H](C)[C@H]2CNc2ccc(F)cn2)c1 [Example A53, ((2S,3R)-2-(((5-Fluoropyridin-2-yl)amino)methyl)-3-methylpiperidin-1-yl)(5-methyl-2-(2-methylpyridin-4-yl)phenyl)methanone] | 670 nM | –
O=C(NC[C@@H]1[C@H]2CCCC[C@H]2CN1C(=O)c1ccccc1-c1ccccc1)c1cccc2cccnc12 (racemic) [Example 66, N-(((1S,3aR,7aS)-2-(Biphenylcarbonyl)octahydro-1H-isoindol-1-yl)methyl)quinoline-8-carboxamide] | – | 350 nM
O=C(NC[C@@H]1C[C@H](F)CN1C(=O)c1ccccc1-c1ccccc1)c1cccc2cccnc12 [Example 5, N-(((2S,4S)-1-(Biphenylcarbonyl)-4-fluoropyrrolidin-2-yl)methyl)quinoline-8-carboxamide] | – | 6 nM
Cc1ccc(-c2ccnn2C)c(C(=O)N2CCC[C@@H](C)[C@H]2CNc2ccc(C(F)(F)F)cn2)c1 (racemic) [Example 108, rac-cis-(3-Methyl-2-(((5-(trifluoromethyl)pyridin-2-yl)amino)methyl)piperidin-1-yl)(5-methyl-2-(1-methyl-1H-pyrazol-5-yl)phenyl)methanone] | – | 13 nM
Cc1nc(-c2ccccc2)c(C(=O)N2CC(O)CCC2CNC(=O)c2cccc3cccnc23)s1 (racemic) [Example 33, N-((5-Hydroxy-1-(2-methyl-4-phenylthiazole-5-carbonyl)piperidin-2-yl)methyl)quinoline-8-carboxamide] | – | 20 nM
Cc1nc(-c2ccccc2)c(C(=O)N2CC(NCCO)CCC2CNC(=O)c2cccc3cccnc23)s1 (racemic) [Example 47, N-((5-(2-Hydroxyethylamino)-1-(2-methyl-4-phenylthiazole-5-carbonyl)piperidin-2-yl)methyl)quinoline-8-carboxamide] | – | < 10000 nM
C[C@@H]1CCCN(C(=O)c2c(-n3nccn3)ccc(F)c2F)[C@@H]1CNc1ncc(C(F)(F)F)cn1 [Example A337, (2,3-Difluoro-6-(2H-1,2,3-triazol-2-yl)phenyl)((2S,3R)-3-methyl-2-(((5-(trifluoromethyl)pyrimidin-2-yl)amino)methyl)piperidin-1-yl)methanone] | 9 nM | –
Cc1ccc(-n2nccn2)c(C(=O)N2CCC[C@@H](C)[C@H]2CNc2ncc(C(F)(F)F)cn2)c1 (racemic) [Example 97, rac-cis-(3-Methyl-2-(((5-(trifluoromethyl)pyrimidin-2-yl)amino)methyl)piperidin-1-yl)(5-methyl-2-(2H-1,2,3-triazol-2-yl)phenyl)methanone] | – | 9 nM
COc1c(F)cccc1C(=O)NCC1CCCC(C)N1C(=O)c1nc(C)sc1-c1ccc(F)cc1 (racemic) [Example 60, rac-3-Fluoro-N-((1-(5-(4-fluorophenyl)-2-methylthiazole-4-carbonyl)-6-methylpiperidin-2-yl)methyl)-2-methoxybenzamide] | – | 1 nM
Cc1nc(-c2ccccc2)c(C(=O)N2CC[C@H](O)[C@H]2CNC(=O)c2cccc3cccnc23)s1 [Example 130, N-(((2R,3S)-3-Hydroxy-1-(2-methyl-4-phenylthiazole-5-carbonyl)pyrrolidin-2-yl)methyl)quinoline-8-carboxamide] | – | 6 nM
Cc1nc(C(=O)N2CCC[C@@H](C)[C@H]2CNc2ccc(C(F)(F)F)cn2)c(-c2ccccc2)s1 (racemic) [Example 73, rac-cis-(3-Methyl-2-(((5-(trifluoromethyl)pyridin-2-yl)amino)methyl)piperidin-1-yl)(2-methyl-5-phenylthiazol-4-yl)methanone] | – | < 10 nM
Cc1nc(-c2ccccc2)c(C(=O)N2CC[C@@H](O)C[C@H]2CNC(=O)c2cccc3cccnc23)s1 [Example 134, N-(((2S,4R)-4-Hydroxy-1-(2-methyl-4-phenylthiazole-5-carbonyl)piperidin-2-yl)methyl)quinoline-8-carboxamide] | – | 5 nM
O=C(NCC1CCC(NCc2ccccc2)CN1C(=O)c1ccccc1-c1ccccc1)c1cccc2cccnc12 (racemic) [Example 40, N-((5-(Benzylamino)-1-(biphenylcarbonyl)piperidin-2-yl)methyl)quinoline-8-carboxamide] | – | 600 nM
O=C(NCC1C2CCC(CC2)N1C(=O)c1ccccc1-c1ccccc1)c1cccc2cccnc12 (racemic) [Example 140, N-(((1s,4s)-2-([1,1′-Biphenyl]-2-carbonyl)-2-azabicyclo[2.2.2]octan-3-yl)methyl)quinoline-8-carboxamide] | – | < 100 nM
Cc1ccc(-c2cccnc2)c(C(=O)N2CCC[C@@H](C)[C@H]2CNc2ccc(Cl)cn2)n1 [Example A224] | 13 nM | –
Cc1nc(-c2ccccc2)c(C(=O)N2CC(F)CCC2CNC(=O)c2cccc3cccnc23)s1 (racemic) [Example 35, N-((5-Fluoro-1-(2-methyl-4-phenylthiazole-5-carbonyl)piperidin-2-yl)methyl)quinoline-8-carboxamide] | – | 2 nM
Cc1ccc(C(=O)N2CCC[C@@H](C)[C@H]2CNc2ccc(C(F)(F)F)cn2)c(-n2nccn2)c1 [Example A273, ((2S,3R)-3-Methyl-2-(((5-(trifluoromethyl)pyridin-2-yl)amino)methyl)piperidin-1-yl)(4-methyl-2-(2H-1,2,3-triazol-2-yl)phenyl)methanone] | 6 nM | –
C[C@@H]1CCCN(C(=O)c2c(-c3ncccn3)ccc(F)c2F)[C@@H]1CNc1ncc(C(F)(F)F)cn1 [Example A389, (2,3-Difluoro-6-(pyrimidin-2-yl)phenyl)((2S,3R)-3-methyl-2-(((5-(trifluoromethyl)pyrimidin-2-yl)amino)methyl)piperidin-1-yl)methanone] | 5 nM | –
Cc1ccc(-c2cnc(N3CCN(C)CC3)nc2)c(C(=O)N2CCC[C@@H](C)[C@H]2CNc2ccc(C(F)(F)F)cn2)c1 (racemic) [Example 109, rac-cis-(3-Methyl-2-(((5-(trifluoromethyl)pyridin-2-yl)amino)methyl)piperidin-1-yl)(5-methyl-2-(2-(4-methylpiperazin-1-yl)pyrimidin-5-yl)phenyl)methanone] | – | > 1000 nM
Cc1ccc(-c2cnn(C)c2)c(C(=O)N2CCC[C@@H](C)[C@H]2CNc2ccc(F)cn2)c1 [Example A44, ((2S,3R)-2-(((5-Fluoropyridin-2-yl)-amino)methyl)-3-methylpiperidin-1-yl)(5-methyl-2-(1-methyl-1H-pyrazol-4-yl)phenyl)methanone] | 11 nM | –
Cc1ccc(C(=O)N2CCC[C@@H](C)[C@H]2CNc2ncc(C(F)(F)F)cn2)c(-n2nccn2)c1 [Example A272, ((2S,3R)-3-Methyl-2-(((5-(trifluoromethyl)pyrimidin-2-yl)amino)methyl)piperidin-1-yl)(4-methyl-2-(2H-1,2,3-triazol-2-yl)phenyl)methanone] | 14 nM | –
C[C@@H]1CCCN(C(=O)c2ccnn2-c2ccccc2)[C@@H]1CNc1ccc(C(F)(F)F)cn1 (racemic) [Example 119, rac-cis-(3-Methyl-2-(((5-(trifluoromethyl)pyridin-2-yl)amino)methyl)piperidin-1-yl)(1-phenyl-1H-pyrazol-5-yl)methanone] | – | 400 nM
Cc1nc(C(=O)N2CCCC3CN(c4nc5ccc(Cl)cc5o4)CC32)c(-c2ccc(F)cc2)s1 (stereo not shown) [Example A76, (6-(6-Chlorobenzo[d]oxazol-2-yl)octahydro-1H-pyrrolo[3,4-b]pyridin-1-yl)(5-(4-fluorophenyl)-2-methylthiazol-4-yl)methanone] | > 1000 nM | –
Cc1ccc(-n2ccnc2)c(C(=O)N2CCC[C@@H](C)[C@H]2CNc2ccc(C(F)(F)F)cn2)c1 (racemic) [Example 116, rac-cis-(2-(1H-Imidazol-1-yl)-5-methylphenyl)(3-methyl-2-(((5-(trifluoromethyl)pyridin-2-yl)amino)methyl)piperidin-1-yl)methanone] | – | < 100 nM
CO[C@@H]1CCCN(C(=O)c2nc(C)sc2-c2ccc(F)cc2)[C@@H]1CNc1ccc(C(F)(F)F)cn1 (racemic) [Example 92, rac-cis-(3-Methoxy-2-(((5-(trifluoromethyl)pyridin-2-yl)amino)methyl)piperidin-1-yl) (5-(4-fluorophenyl)-2-methylthiazol-4-yl)methanone] | – | 560 nM
C[C@@H]1CCCN(C(=O)c2nccc3ccccc23)[C@@H]1CNc1ncc(Cl)cn1 [Example A225, ((2S,3R)-2-(((5-Chloropyrimidin-2-yl)amino)methyl)-3-methylpiperidin-1-yl)(isoquinolin-1-yl)methanone] | 340 nM | –
Cc1nc(C(=O)N2CCC[C@@H](C)[C@H]2CNc2ncccc2C(F)(F)F)c(-c2ccc(F)cc2)s1 (racemic) [Example 22, rac-cis-(5-(4-Fluorophenyl)-2-methylthiazol-4-yl)(3-methyl-2-(((3-(trifluoromethyl)pyridin-2-yl)amino)methyl)piperidin-1-yl)methanone] | – | 82 nM
Cc1ccc(-n2nccn2)c(C(=O)N2CCC[C@@H](C)[C@H]2CNc2nc3ccccc3o2)c1 [Example A180, ((2S,3R)-2-((Benzo[d]oxazol-2-ylamino)methyl)-3-methylpiperidin-1-yl)(5-methyl-2-(2H-1,2,3-triazol-2-yl)phenyl)methanone] | 4 nM | –
